EP3394284B1, “ENZYMATIC METHOD FOR THE EVALUATION OF XYLOSE” (Venter Pharma, S.L, priority 2015, dated 2017)

Columns and labels:
XylB-wt2 [1] = molecular target: T1, XylB-wt2 (Caulobacter vibrioides, UniProt B8H1Z0); test: Substrate specificity: XylB-wt2 activity with mono- and disaccharides (NADH formation at 340 nm); assay type: biochemical, C. crescentus NA1000
T1 construct: made in house; host or cells: E. coli BL21(DE3)
T1 sequence (B8H1Z0 1-248): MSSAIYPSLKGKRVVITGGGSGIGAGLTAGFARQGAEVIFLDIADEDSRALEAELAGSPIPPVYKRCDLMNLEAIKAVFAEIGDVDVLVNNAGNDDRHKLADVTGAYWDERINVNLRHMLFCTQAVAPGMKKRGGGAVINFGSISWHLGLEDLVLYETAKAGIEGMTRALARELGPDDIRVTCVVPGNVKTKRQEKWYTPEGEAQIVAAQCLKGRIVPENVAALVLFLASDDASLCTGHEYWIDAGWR
Procedure: Xylose dehydrogenase activity in each CFE was evaluated. XylB catalyzes the oxidation of D-xylose with concomitant reduction of its cofactor NAD^+, to yield NADH. Activity can be determined by measuring the formation of NADH by spectrophotometric monitoring. Variations of absorbance at 340 nm are proportional to consumed D-xylose concentration in the reaction (ε^NADH = 6220 cm^-1M^-1). Activity assays were performed at RT and pH 8.0 (Figure 5). Absorbance at 340 nm (OD) was spectrophotometrically recorded along the time in the presence of each CFE sample containing expressed XylB: wt1, wt2, 6His1 and 6His2. […] Volumes of CFE samples used in the assays are shown in brackets, as well as when the sample has been diluted 10 times (dil 1/10). Slopes are proportional to enzyme activity.
The enzyme XylB-wt2 was characterized to determine if it is possible its application in sensitive and reliable D-xylose detection and quantification. […] In order to confirm the substrate specificity, 9 different sugars (7 monosaccharides and 2 disaccharides) were assayed as XylB-wt substrates. […] XylB-wt2 specific activity measured with different mono and disaccharides.

XylB-wt2 [2] = molecular target: T1, XylB-wt2; test: Steady-state kinetic assays of purified XylB-wt2 for substrates and cofactor; assay type: biochemical, C. crescentus NA1000; conditions: for activity as cofactor of XylB-wt2: NAD^+ and NADP^+ both assayed, 'the first one' = NAD^+ (NADP^+ gave no activity)
Procedure: (§1) Steady-state kinetic assays for XylB activity were measured in triplicate at 25°C in 96-well plates (total volume of 0.3 mL). Measurements of kinetic parameters for D-xylose were performed with purified XylB-wt2 at eight different D-xylose concentrations and with saturating concentration of NAD^+ (0.5 mM). […] Xylose dehydrogenase activity of purified XylB-wt2 was measured at RT and pH 8.0.
(§2) Kinetic parameters of XylB-wt2 for the cofactor NAD^+ were also calculated.
(§3) The calculated homohexameric quaternary structure should be considered when kinetic parameters are calculated.

Strep-TEV-XylB = molecular target: T2, Strep-TEV-XylB (Caulobacter vibrioides, UniProt B8H1Z0); conditions: data taken from Toivari M, 2012a; pH 9.0; cited from earlier work
T2 construct: Strep tag; TEV cleavage site
T2 sequence (B8H1Z0 1-248): T1 sequence (B8H1Z0 1-248)

6His-tagged XylB = molecular target: T3, 6His-tagged XylB (Caulobacter vibrioides, UniProt B8H1Z0); conditions: data taken from Stephens C, 2007; cited from earlier work
T3 construct: 6His
T3 sequence (B8H1Z0 1-248): T1 sequence (B8H1Z0 1-248)

[3] = substrate: NC(=O)c1ccc[n+]([C@@H]2O[C@H](COP(=O)([O-])OP(=O)(O)OC[C@H]3O[C@@H](n4cnc5c(N)ncnc54)[C@H](O)[C@@H]3O)[C@@H](O)[C@H]2O)c1; test: Steady-state kinetic assays of purified XylB-wt2 for substrates and cofactor; assay type: biochemical, C. crescentus NA1000; conditions: other: 25°C, pH 8.0, sugars with NAD^+ 0.5 mM, NAD^+ with D-xylose 5 mM
Procedure: as §1, §2, §3

[4] = sugar concentration 100 mM, relative to D-xylose at 5 mM
[5] = considering the enzyme as a homohexameric protein
[6] = 25°C, pH 8.0, sugars with NAD^+ 0.5 mM, NAD^+ with D-xylose 5 mM, enzyme assumed monomer
[7] = sugar concentration 5 mM, relative to D-xylose

## 4-O-β-galactopyranosyl-D-xylose [Gaxilose]
XylB-wt2 [1]; sugar concentration 100 mM
  Specific Activity (U/mg): 0.7 U/mg
XylB-wt2 [1]; [4]
  Relative Activity (%): 2%

## OC[C@H]1O[C@H](O[C@H]2[C@H](O)[C@@H](O)C(O)O[C@@H]2CO)[C@H](O)[C@@H](O)[C@@H]1O (mixture of isomers) [Maltose]
XylB-wt2 [1]; sugar concentration 100 mM
  Specific Activity (U/mg): 0.0 U/mg
XylB-wt2 [1]; [4]
  Relative Activity (%): 0%

## O=C(CO)[C@@H](O)[C@H](O)[C@H](O)CO [D-Fructose]
XylB-wt2 [1]; sugar concentration 100 mM
  Specific Activity (U/mg): 0.0 U/mg
XylB-wt2 [1]; [4]
  Relative Activity (%): 0%

## NC(=O)c1ccc[n+]([C@@H]2O[C@H](COP(=O)([O-])OP(=O)(O)OC[C@H]3O[C@@H](n4cnc5c(N)ncnc54)[C@H](OP(=O)(O)O)[C@@H]3O)[C@@H](O)[C@H]2O)c1 [NADP^+]
XylB-wt2 [2]
  activity as cofactor of XylB-wt2: only displayed activity with the first one

## NC(=O)c1ccc[n+]([C@@H]2O[C@H](COP(=O)([O-])OP(=O)(O)OC[C@H]3O[C@@H](n4cnc5c(N)ncnc54)[C@H](O)[C@@H]3O)[C@@H](O)[C@H]2O)c1 [NAD^+]
Strep-TEV-XylB
  Km: 460 ± 50 µM
  kcat: 31 ± 1.08 s⁻¹
XylB-wt2 [2]
  activity as cofactor of XylB-wt2: only displayed activity with the first one
XylB-wt2 [2]; [5]
  Vmax (U·mg^-1): 30.1 ±1.0 U·mg^-1
6His-tagged XylB
  Vmax (U·mg^-1): 20.5 U·mg^-1

## D-Galactose
XylB-wt2 [1]; sugar concentration 100 mM
  Specific Activity (U/mg): 0.5 U/mg
XylB-wt2 [1]; [4]
  Relative Activity (%): 2%

## D-Glucose
XylB-wt2 [2]; [6]
  Vmax (U·mg^-1): 10.7 ±0.1 U·mg^-1
  kcat: 4.78 ± 0.833 s⁻¹
XylB-wt2 [2]; [5]
  Vmax (U·mg^-1): 10.7 ±0.1 U·mg^-1
XylB-wt2 [1]; sugar concentration 100 mM
  Specific Activity (U/mg): 3.9 U/mg
XylB-wt2 [1]; [4]
  Relative Activity (%): 13%

## D-Mannose
XylB-wt2 [1]; sugar concentration 100 mM
  Specific Activity (U/mg): 0.0 U/mg
XylB-wt2 [1]; [4]
  Relative Activity (%): 0%

## D-Ribose
XylB-wt2 [1]; sugar concentration 100 mM
  Specific Activity (U/mg): 4.4 U/mg
XylB-wt2 [1]; [4]
  Relative Activity (%): 15%

## D-Xylose
Strep-TEV-XylB
  Km: 80 ± 20 µM
  kcat: 22.67 ± 1.08 s⁻¹
XylB-wt2 [2]; 25°C, pH 8.0, sugars with NAD^+ 0.5 mM, NAD^+ with D-xylose 5 mM
  Km: 41 ± 5 µM
XylB-wt2 [2]; [6]
  Vmax (U·mg^-1): 30.2 ±1.0 U·mg^-1
  kcat: 13.5 ± 0.583 s⁻¹
XylB-wt2 [2]; XylB-wt2, pH 8.0
  catalytic efficiencies (kcat/KM) ratio D-xylose/ D-glucose: 15000
XylB-wt2 [2]; [5]
  Km: 41 ± 5 µM
  Vmax (U·mg^-1): 30.2 ±1.0 U·mg^-1
6His-tagged XylB
  Km: 760 µM
  Vmax (U·mg^-1): 27.5 U·mg^-1
XylB-wt2 [1]; sugar concentration 5 mM
  Specific Activity (U/mg): 30.0 U/mg
XylB-wt2 [1]; [7]
  Relative Activity (%): 100%

## L-Arabinose
XylB-wt2 [1]; sugar concentration 5 mM
  Specific Activity (U/mg): 4.8 U/mg
XylB-wt2 [1]; [7]
  Relative Activity (%): 16%

B1: XylB-wt2 (Caulobacter vibrioides NA1000) (protein)
chain: T1 sequence (B8H1Z0 1-248)
notes: made in house; host or cells: E. coli BL21(DE3)
[3]
  Km: 78 ± 10 µM
  Vmax: 30.1 ±1.0 U·mg^-1
  kcat: 13.5 ± 1.08 s⁻¹
  kcat/Km: 173080 M⁻¹ s⁻¹
